In brackets after ≈: the same amount, converted by molar mass. Marks after values point to notes of the source that are not given here.
Experiments:
[1] = test system: SW620; experiment: MTT cytotoxicity assay (Examples 1-5); type: cell-based, human; conditions: mean ± SD (n = 3), read-out: AMR IC50
From the text: Cell proliferation kit I (MTT) from Roche Diagnostics GmbH (Indianapolis, Ind.) was used for cytotoxicity assays and manufacturers protocol was followed for the assay.

[2] = test system: MCF-7/TH; experiment: DNA fragmentation by agarose gel electrophoresis; type: cell-based, human
Procedure: (§1) Analysis of DNA fragmentation by agarose gel electrophoresis. To assess the pattern of DNA cleavage caused by AMR, agarose gel electrophoresis was performed as described by Cohen and Duke (Cohen, J. J. and Duke, R. C. J Immunol, 1984, 132:38-42). Briefly, control and drug-treated cells (2×10^6 cells) were lysed with 0.5 ml lysis buffer containing 0.2% Triton X-100 at room temperature for 30 minutes. The supernatant fractions were collected by centrifugation at 12,000×g for 30 minutes. The DNA in these fractions was precipitated overnight with 100 μl 5 M sodium chloride and 0.5 ml 2-isopropanol at −20° C. The DNA was dissolved in 20 μl of 10 mM Tris-HCl (pH 7.4) and 1 mM EDTA buffer. RNase (10 units) was added to the samples before incubating at 60° C. for 1 hour. An equal volume of loading buffer was added afterwards and the samples were subjected to electrophoresis on a 2% agarose gel in Tris borate buffer at 50 V for 3 hours. The agarose gel was stained with ethidium bromide, and DNA fragmentation pattern was visualized in a UV transilluminator. AMR-induced DNA fragmentation was also analyzed by TUNEL assay using in situ cell detection kit according to manufacturer's instructions. Briefly, cells were permeabilized in a solution containing 0.1% Triton X-100 and 0.1% (w/v) sodium citrate for 2 minutes. After washing in PBS, cells were incubated with label solution and terminal transferase. Cells were incubated without terminal deoxynucleotidyl transferase was used as negative control. DNase (1 μg/ml) treated cells incubated with label solution in the presence of terminal deoxynucleotidyl transferase (TUNEL reaction mixture) was used as positive control and the details of TUNEL assay have been described earlier (Ramachandran, C. et al. Anticancer Res, 1997, 17:3369-3376).

[3] = test system: MCF-10A; experiment: DNA fragmentation by agarose gel electrophoresis; type: cell-based, human
Procedure: as §1

[4] = test system: MCF-7; experiment: DNA fragmentation by agarose gel electrophoresis; type: cell-based, human
Procedure: as §1

[5] = test system: MCF-7/TH; experiment: Caspase-8 (LETD) activity by flow cytometry; type: cell-based, human; conditions: AMR 1-8 μg/ml, 48 hours
Procedure: (§2) Detection of apoptosis and caspase activity. Breast carcinoma or breast epithelial cells were incubated for 48 hours in the presence or absence of AMR (1-8 μg/ml). AMR-induced apoptosis was evaluated by Fluorescein Caspase (VAD) Activity Kit and caspase-8 (LETD) Activity Kit according to manufacturer's instructions ([…]-Calvo, M. et al. J Biol Chem, 1998, 273:32608-32613).

[6] = test system: MCF-10A; experiment: Caspase-8 (LETD) activity by flow cytometry; type: cell-based, human; conditions: AMR 1-8 μg/ml, 48 hours
Procedure: as §2

[7] = test system: MCF-7; experiment: Caspase-8 (LETD) activity by flow cytometry; type: cell-based, human; conditions: AMR 1-8 μg/ml, 48 hours
Procedure: as §2

[8] = test system: MCF-7/TH; experiment: Cell cycle analysis by flow cytometry; type: cell-based, human; conditions: 1 μg/ml AMR, one range printed for MCF-7 and MCF-7/TH together
Procedure: (§3) Cell cycle analysis. The number of cells in each stage of the cell cycle was monitored by flow cytometric analysis of cellular DNA content after staining with 1 mg/ml propidium iodide (Chen, G. et al. Cancer Res, 1993, 53:2544-2547). Data was analyzed to determine the percentage of cells at each phase of the cell cycle (G0+G1, S, and G2+M).

[9] = test system: MCF-10A; experiment: Cell cycle analysis by flow cytometry; type: cell-based, human; conditions: 1 μg/ml AMR
Procedure: as §3

[10] = test system: MCF-7; experiment: Cell cycle analysis by flow cytometry; type: cell-based, human; conditions: 1 μg/ml AMR, one range printed for MCF-7 and MCF-7/TH together
Procedure: as §3

[11] = test system: CEM; experiment: MTT cytotoxicity assay (Examples 1-5); type: cell-based, human; conditions: mean ± SD (n = 3), read-out: AMR IC50
From the text: (§4) Cytotoxicity Assay (Examples 1-5). […] Cell proliferation kit I (MTT) from Roche Diagnostics GmbH (Indianapolis, Ind.) was used for cytotoxicity assays and manufacturers protocol was followed for the assay.

[12] = test system: CEM/VLB; experiment: MTT cytotoxicity assay (Examples 1-5); type: cell-based, human
From the text: as §4

[13] = test system: SW620/Ad-300; experiment: MTT cytotoxicity assay (Examples 1-5); type: cell-based, human
From the text: as §4

[14] = test system: SW620 human tumor xenografts; experiment: Xenograft studies with AMR in nude mice; type: in vivo; conditions: for Therapeutic ratio: Therapeutic Ratio = 100 - Tumor Growth Rate Index (GRI)
Procedure: Xenograft studies with AMR in nude mice. Male athymic nude (nu/nu) mice of the BALB/c strain (4-5 weeks old) were purchased from Taconic Labs, NY. SW620 colon carcinoma cells (10^6/site) in 0.1 ml of Hank's balanced salt solution were injected subcutaneously into the right flank of the nude mice using a 21 gauge needle. When the tumors reached approximately 0.5 cm^3 size in volume (usually 14 days), chemotherapy with AMR was started involving six animals in each group with almost similar size tumors. […] AMR was dissolved in 1:1 mixture of Cremophor EL and ethanol for administration and the control treatments were doxorubicin dissolved in phosphate dissolved saline and saline alone (0 mg/kg). Tumor size (length and width) was recorded on every fifth day of treatment along with body weight and survival data. Tumor volume was calculated using the following formula: […]
Tumor growth rate was calculated as mean V1/V0 where V1 is the volume on the evaluation day of treatment effect and V0 is that on the first day of treatment. The growth rate index and therapeutic index estimates were calculated using the following formulae:
Therapeutic Ratio=100—Tumor Growth Rate Index (GRI)

[15] = test system: MCF-7/TH; experiment: TUNEL assay of DNA fragmentation; type: cell-based, human; conditions: AMR 1-8 μg/ml, 48 hours
Procedure: as §1

[16] = test system: MCF-10A; experiment: TUNEL assay of DNA fragmentation; type: cell-based, human; conditions: AMR 1-8 μg/ml, 48 hours
Procedure: as §1

[17] = test system: MCF-7; experiment: TUNEL assay of DNA fragmentation; type: cell-based, human; conditions: AMR 1-8 μg/ml, 48 hours
Procedure: as §1

[18] = test system: MCF-7/TH; experiment: MTT cytotoxicity assay (Examples 6-8); type: cell-based, human; conditions: 0-8 μg/ml AMR for 48 hours
Procedure: (§5) Cytotoxicity assay (Examples 6-8). MTT assay was used to determine drug sensitivity (Hansen, M. B. et al. J Immunol Methods, 1989, 119:203-210). Cells (1×10^4) were grown in 96-well plates and after 48 hours, the medium was replaced with new medium. The cells were incubated at 37° C. with varying concentrations of AMR for 48 hours at 37° C. Cell viability was then assayed by adding MTT dye (500 μg/ml). Six hours after incubation period, MTT containing medium was removed. The formazan crystals were dissolved in 100 μl/well dimethyl sulfoxide, and the plates were read in BIO-RAD Benchmark Microplate Reader at 570 nm wavelength. All experiments were repeated three times with three replications in each and the mean values were estimated. Student's t test was used to determine the significant difference between IC50 values.

[19] = test system: MCF-10A; experiment: MTT cytotoxicity assay (Examples 6-8); type: cell-based, human; conditions: 0-8 μg/ml AMR for 48 hours
Procedure: as §5

[20] = test system: MCF-7; experiment: MTT cytotoxicity assay (Examples 6-8); type: cell-based, human; conditions: 0-8 μg/ml AMR for 48 hours
Procedure: as §5

[21] = test system: CEM; experiment: Cellular DOX content by flow cytometry; type: cell-based, human; conditions: DOX 2 μg/ml with 1 or 2 μg/ml AMR
Procedure: (§6) Cellular DOX Content. […] Cellular DOX fluorescence was analyzed in a Coulter Elite flow cytometer. Fluorescence emission (above 530 nm) from at least 10,000 cells were collected, amplified and scaled to generate a single parameter histogram (Ramachandran, C. et al. Biochem Phammacol, 1995, 49:545-552).

[22] = test system: CEM/VLB; experiment: Cellular DOX content by flow cytometry; type: cell-based, human; conditions: DOX 2 μg/ml with 1 and 2 μg/ml AMR
Procedure: as §6

[23] = test system: SW620; experiment: Cellular DOX content by flow cytometry; type: cell-based, human; conditions: DOX 2 μg/ml with 1 or 2 μg/ml AMR
Procedure: as §6

[24] = test system: SW620/Ad-300; experiment: Cellular DOX content by flow cytometry; type: cell-based, human; conditions: DOX 2 μg/ml with 1 and 2 μg/ml AMR
Procedure: as §6

[25] = test system: CEM; experiment: DNA histogram analysis of cell cycle distribution; type: cell-based, human; conditions: AMR 0-2.5 μg/ml, 48 hours, up from 18.0% without AMR
Procedure: (§7) DNA Histogram Analysis. Following drug exposure for 48 hours, cells were centrifuged and resuspended in propidium iodide-hypotonic citrate solution for 1 hour before flow cytometric analysis of cell cycle distribution (Ramachandran, C. et al. Biochem Pharmacol, 1995, 49:545-552).

[26] = test system: CEM/VLB; experiment: DNA histogram analysis of cell cycle distribution; type: cell-based, human; conditions: AMR 0-2.5 μg/ml, 48 hours, up from 18.0% without AMR
Procedure: as §7

[27] = test system: SW620; experiment: DNA histogram analysis of cell cycle distribution; type: cell-based, human; conditions: AMR 0-2.5 μg/ml, 48 hours, up from 12.5% without AMR
Procedure: as §7

[28] = test system: SW620/Ad-300; experiment: DNA histogram analysis of cell cycle distribution; type: cell-based, human; conditions: AMR 0-2.5 μg/ml, 48 hours, up from 15.6% without AMR
Procedure: as §7

CC1(C)CC[C@]2(C(=O)O)CC[C@]3(C)C(=CC[C@@H]4[C@@]5(CO)CCC(=O)C(C)(C)[C@@H]5CC[C@]43C)[C@@H]2C1 [AMR, 25-hydroxy-3-oxoolean-12-en-28-oic acid]
IC50 [1]: 7.7 ± 0.15 µM | DNA ladder pattern ([2]; 1 μg/ml AMR for 48 hours): highly visible | DNA ladder pattern ([2]; AMR treatment for 48 hours): distinct ladder pattern | DNA fragmentation ([3]; 1 μg/ml AMR for 48 hours): almost undetectable | DNA ladder pattern ([3]; AMR treatment for 48 hours): less distinct | DNA ladder pattern ([4]; 1 μg/ml AMR for 48 hours): highly visible | DNA ladder pattern ([4]; AMR treatment for 48 hours): distinct ladder pattern | cells with caspase activation (caspase-8 positive cells) [5]: 28.5-43.2% | cells with caspase activation (caspase-8 positive cells) [6]: 4-32.8% | cells with caspase activation (caspase-8 positive cells) [7]: 40.8-71% | accumulation in G2+M phase population [8]: 12.4%-32.2% | G2/M phase arrest [9]: does not induce any G2/M phase arrest | accumulation in G2+M phase population [10]: 12.4%-32.2% | IC50 [11]: 5.31 ± 0.02 µM | Modulator Index (MI = fold decrease in resistance/modulator in μM concentration) ([12]; CEM/VLB): 40 | resistance to AMR ([12]; CEM/VLB versus CEM): 1.9 fold | IC50 ([12]; CEM/VLB, mean ± SD (n = 3), read-out: AMR IC50): 10.2 ± 0.11 µM | Modulator Index (MI = fold decrease in resistance/modulator in μM concentration) ([13]; SW620/Ad-300): 41.6 | IC50 ([13]; SW620/Ad-300, mean ± SD (n = 3), read-out: AMR IC50): 12.7 ± 0.27 µM | resistance to AMR ([13]; SW620/Ad-300 versus SW620): 1.6 fold | Survival (%) ([14]; 2 mg/kg): 83.3% | Therapeutic ratio ([14]; 2 mg/kg): 61.3** | Survival (%) ([14]; 5 mg/kg): 57.1% | Therapeutic ratio ([14]; 5 mg/kg): 37.6** | Survival (%) ([14]; 10 mg/kg): 57.1% | Therapeutic ratio ([14]; 10 mg/kg): 41.9** | tumor growth rate ([14]; AMR 2-10 mg/kg intraperitoneal, compared to doxorubicin (2 mg/kg) or saline): significantly reduced tumor growth rate | cells with DNA fragmentation (TUNEL) [15]: 32-48.7% | cells with DNA fragmentation (TUNEL) [16]: 0-37.1% | cells with DNA fragmentation (TUNEL) [17]: 37.3-72.1% | IC50 [18]: 6.8 mg/L (≈ 14.4 µM) | IC50 [19]: 6.9 mg/L (≈ 14.7 µM) | IC50 [20]: 3.8 mg/L (≈ 8.07 µM) | cellular DOX fluorescence [21]: No significant change | cellular DOX accumulation [22]: increased cellular DOX accumulation in a dose-dependent manner | cellular DOX fluorescence [23]: No significant change | cellular DOX accumulation [24]: increased cellular DOX accumulation in a dose-dependent manner | percentage of G2+M cells [25]: 61.1% | percentage of G2+M cells [26]: 48.7% | G2+M percentage [27]: 59.5% | G2+M percentage [28]: 52.8%

From patent US20090203634A1, “Compositions and Uses of Amooranin Compounds” (Variety Children's Hospital d/b/a Miami Children's Hospital, priority 2005, published 2009)
